Test results taken from patent publication US4605642A, “CRF antagonists” (The Salk Institute for Biological Studies, priority 1984, dated 1986).
Square brackets hold non-standard residues; d marks the D form. Peptide text beside a SMILES is read from it. Nle = CCCC[C@H](N)C(=O)O

Legend:
β-END-LI secretion = β-END-LI secretion in vivo after intravenous hCRF in rat preparations
Protocol: (§1) Plasma levels of ACTH and β-END-LI are elevated for at least 5-20 minutes following the intraveneous administration of hCRF to nembutal-anesthesized male rats and to quiescent male or female rats with indwelling intravenous cannulae.

ACTH secretion = ACTH secretion in vivo after intravenous hCRF in rat preparations
Protocol: as §1

[1] = test system: GRF-stimulated secretion of GH; experiment: Specificity: GRF-stimulated secretion of GH; assay type: cell-based; conditions: specificity of inhibition
[2] = test system: secretion of ACTH by cultured rat pituitary cells; experiment: Blocking of oCRF-stimulated ACTH secretion by cultured rat pituitary cells; assay type: cell-based; conditions: for inhibition of the secretion of ACTH (in words): general procedure set forth in Example III
Protocol: (§2) The effectiveness of synthetic CRF antagonists to block the secretion of ACTH and β-endorphin by cultured rat pituitary cells is measured using the procedure as generally set forth in Vale et al., Endocrinology, 91, 562 (1972). In vivo testing is carried out using the general procedure set forth in C. Rivier et al., Science, 218, 377 (1982).

spontaneous ACTH release = experiment: Spontaneous ACTH release by adrenalectomized rats; assay type: in vivo, rat; conditions: iv 3 mg/kg BW (2.7 nmole)
Protocol: as §2
The in vivo effect of CRF antagonists is tested on the spontaneous ACTH release by adrenalectomized rats.

[3] = test system: TRF-stimulated secretion of TSH and prolactin; experiment: Specificity: TRF-stimulated secretion of TSH and prolactin; assay type: cell-based; conditions: specificity of inhibition
[4] = test system: GnRH-stimulated secretion of LH and FSH; experiment: Specificity: GnRH-stimulated secretion of LH and FSH; assay type: cell-based; conditions: specificity of inhibition
[5] = Blood pressure lowering by antagonist; assay type: in vivo; conditions: general procedure set forth in Example III
[6] = test system: secretion of β-endorphin by cultured rat pituitary cells; experiment: Blocking of β-endorphin (β-END-LI) secretion by cultured rat pituitary cells; assay type: cell-based; conditions: general procedure set forth in Example III
Protocol: as §2

[7] = intravenous, nembutal-anesthetized male rats and quiescent cannulated male or female rats

Molecule: CC[C@H](C)[C@H](NC(=O)[C@@H](NC(=O)[C@H](CCC(=O)O)NC(=O)[C@H](CCSC)NC(=O)[C@H](CC(C)C)NC(=O)[C@H](CCCCN)NC(=O)[C@H](CCCNC(=N)N)NC(=O)[C@H](CC(N)=O)NC(=O)[C@H](CO)NC(=O)[C@H](Cc1c[nH]cn1)NC(=O)[C@H](C)NC(=O)[C@H](CCC(N)=O)NC(=O)[C@H](CCC(N)=O)NC(=O)[C@H](C)NC(=O)[C@H](CC(C)C)NC(=O)[C@H](CCC(N)=O)NC(=O)[C@H](CCC(=O)O)NC(=O)[C@H](C)NC(=O)[C@H](CCCNC(=N)N)NC(=O)[C@H](C)NC(=O)[C@H](CCSC)NC(=O)[C@H](CCC(=O)O)NC(=O)[C@H](CC(C)C)NC(=O)[C@@H](NC(=O)[C@H](CCC(=O)O)NC(=O)[C@H](CCCNC(=N)N)NC(=O)[C@H](CC(C)C)NC(=O)[C@H](CC(C)C)NC(=O)[C@H](Cc1c[nH]cn1)NC(=O)[C@H](Cc1ccccc1)NC(=O)[C@@H](NC(=O)[C@H](CC(C)C)NC(=O)[C@H](CC(=O)O)NC(=O)[C@H](CC(C)C)NC(=O)[C@H](CO)NC(=O)[C@@H](NC(=O)[C@@H]1CCCN1C(=O)[C@@H]1CCCN1C(=O)[C@H](CCC(=O)O)NC(=O)[C@H](CCC(=O)O)NC(=O)[C@@H](N)CO)[C@@H](C)CC)[C@@H](C)O)C(C)C)[C@@H](C)CC)C(N)=O [hCRF]
- time for which plasma levels of β-END-LI are elevated (β-END-LI secretion; [7]): 5 to 20 min
- stimulation of β-END-LI secretion in vivo (β-END-LI secretion; several rat preparations): powerful stimulator
- time for which plasma levels of ACTH are elevated (ACTH secretion; [7]): 5 to 20 min
- stimulation of ACTH secretion in vivo (ACTH secretion; several rat preparations): powerful stimulator

Molecule: H-DLTFHLLREMLEMAKAEQEAEQAALNRLLLEEA-NH2 [AHC (9-41)]
- effect on the GRF-stimulated secretion of GH [1]: no effect
- IC50 ([2]; cultured rat pituitary cells, 1 nM oCRF, five independent experiments, read-out: concentration that blocks the secretion of ACTH due to 1 nM oCRF by 50%): 197 ± 72 nM
- type of inhibition of oCRF-stimulated ACTH secretion ([2]; several concentrations of oCRF and of antagonist, constant oCRF 1 nM): competitive inhibition
- potency as CRF antagonist (in words) ([2]; test not stated at the place): particularly potent
- plasma ACTH levels (spontaneous ACTH release) (spontaneous ACTH release): marked decrease
- effect on the TRF-stimulated secretion of TSH and prolactin [3]: no effect
- effect on the GnRH-stimulated secretion of LH and FSH [4]: no effect

Molecule: H-Asp-CML-Thr-Leu-Glu-CML-Leu-Arg-Glu-Met-CML-Glu-Met-Ala-Lys-Ala-Glu-Gln- CML-Ala-Glu-Gln-Ala-Ala-CML-Asn-Arg-Leu-CML-Leu-Glu-Glu-Ala-NH2 [[CML^10,14,19,27,33,38]-AHC(9-41)]
- inhibition of the secretion of ACTH (in words) [2]: inhibits the secretion
- lowering of blood pressure [5]: very significant lowering of blood pressure
- inhibition of the secretion of β-END-LI (in words) [6]: inhibits the secretion

Molecule: CCCC[C@H](NC(=O)[C@H](CCC(=O)O)NC(=O)[C@H](CC(C)C)NC(=O)[C@H](CCCC)NC(=O)[C@H](CCC(=O)O)NC(=O)[C@H](CCCNC(=N)N)NC(=O)[C@H](CC(C)C)NC(=O)[C@H](CC(C)C)NC(=O)[C@H](Cc1c[nH]cn1)NC(=O)[C@H](Cc1ccccc1)NC(=O)[C@@H](NC(=O)[C@H](CC(C)C)NC(=O)[C@H](CC(=O)O)NC(=O)[C@@H](N)CC(C)C)[C@@H](C)O)C(=O)N[C@@H](C)C(=O)N[C@@H](CCCCN)C(=O)N[C@@H](C)C(=O)N[C@@H](CCC(=O)O)C(=O)N[C@@H](CCC(N)=O)C(=O)N[C@@H](CCC(=O)O)C(=O)N[C@@H](C)C(=O)N[C@@H](CCC(=O)O)C(=O)N[C@@H](CCC(N)=O)C(=O)N[C@@H](C)C(=O)N[C@@H](C)C(=O)N[C@@H](CC(C)C)C(=O)N[C@@H](CC(N)=O)C(=O)N[C@@H](CCCNC(=N)N)C(=O)N[C@@H](CC(C)C)C(=O)N[C@@H](CC(C)C)C(=O)N[C@@H](CC(C)C)C(=O)N[C@@H](CCC(=O)O)C(=O)N[C@@H](CCC(=O)O)C(=O)N[C@@H](C)C(N)=O [[Nle^18,21]-AHC(8-41)] (H-LDLTFHLLRE[Nle]LE[Nle]AKAEQEAEQAALNRLLLEEA-NH2)
- inhibition of the secretion of ACTH (in words) [2]: inhibits the secretion
- inhibition of the secretion of β-END-LI (in words) [6]: inhibits the secretion

Molecule: H-IDLTFHLLRNMIEMARNENQREQAGLNRKYLDEV-NH2 [Carp Urotensin I(8-41)]
- inhibition of the secretion of ACTH (in words) [2]: inhibits the secretion
- inhibition of the secretion of β-END-LI (in words) [6]: inhibits the secretion

Molecule: H-DLTFHLLRNMIEMARNENQREQAGLNRKYLDEV-NH2 [Carp Urotensin I(9-41)]
- inhibition of the secretion of ACTH (in words) [2]: inhibits the secretion
- inhibition of the secretion of β-END-LI (in words) [6]: inhibits the secretion

Molecule: H-LDLTFHLLREVLEMAKAEQLAQQAHSNRKLLEII-NH2 [[Lys^23, Leu^38]-hCRF(8-41)]
- inhibition of the secretion of ACTH (in words) [2]: inhibits the secretion
- inhibition of the secretion of β-END-LI (in words) [6]: inhibits the secretion
